Literature values, collected in PubChem BioAssay AID1259409 (Chemical Carcinogenesis Research Information System (CCRIS), 2018).

System: rodent chemically induced tumor inhibition, incidence and multiplicity
Test: CCRIS tumor inhibitor studies

COc1ccc2[nH]cc(CCNC(C)=O)c2c1
tumour outcome (control, treated, inhibition, significance) (Carcinogen: 1,2-DIMETHYLHYDRAZINE [540-73-8], Dose [Inhibitor]: 20 UG/ML IN DRINKING WATER 14 HR/D AT NIGHT TIME FOR 6 MONTHS (STUDY DURATION: 6 MONTHS), Route [Inhibitor]: ORAL, Species: RAT, Strain/Sex: LIO/FEMALE, Target Tissue: Type of Lesion: ASCENDING COLON: TUMOR, Dose [Carcinogen]: 21 MG/KG BW 1X/WK FOR 15 WK (STUDY DURATION: 6 MONTHS), Promoter: NONE): 23/25 (92.0%), 15/23 (65.2%), 29%, p<0.01 | tumour outcome (control, treated, inhibition, significance) (Carcinogen: 1,2-DIMETHYLHYDRAZINE [540-73-8], Dose [Inhibitor]: 20 UG/ML IN DRINKING WATER 14 HR/D AT NIGHT TIME FOR 6 MONTHS (STUDY DURATION: 6 MONTHS), Route [Inhibitor]: ORAL, Species: RAT, Strain/Sex: LIO/FEMALE, Target Tissue: Type of Lesion: DESCENDING COLON: TUMOR, Dose [Carcinogen]: 21 MG/KG BW 1X/WK FOR 15 WK (STUDY DURATION: 6 MONTHS), Promoter: NONE): 25/25 (100.0%), 23/23 (100.0%), 0%, not significant | tumour outcome (control, treated, inhibition, significance) (Carcinogen: 1,2-DIMETHYLHYDRAZINE [540-73-8], Dose [Inhibitor]: 20 UG/ML IN DRINKING WATER 14 HR/D AT NIGHT TIME FOR 6 MONTHS (STUDY DURATION: 6 MONTHS), Route [Inhibitor]: ORAL, Species: RAT, Strain/Sex: LIO/FEMALE, Target Tissue: Type of Lesion: DUODENUM: TUMOR, Dose [Carcinogen]: 21 MG/KG BW 1X/WK FOR 15 WK (STUDY DURATION: 6 MONTHS), Promoter: NONE): 8/25 (32.0%), 5/23 (21.7%), 32%, not significant | tumour outcome (control, treated, inhibition, significance) (Carcinogen: 1,2-DIMETHYLHYDRAZINE [540-73-8], Dose [Inhibitor]: 20 UG/ML IN DRINKING WATER 14 HR/D AT NIGHT TIME FOR 6 MONTHS (STUDY DURATION: 6 MONTHS), Route [Inhibitor]: ORAL, Species: RAT, Strain/Sex: LIO/FEMALE, Target Tissue: Type of Lesion: JEJUNUM AND ILIUM: TUMOR, Dose [Carcinogen]: 21 MG/KG BW 1X/WK FOR 15 WK (STUDY DURATION: 6 MONTHS), Promoter: NONE): 4/25 (16.0%), 1/23 (4.3%), 73%, p<0.05 | tumour outcome (control, treated, inhibition, significance) (Carcinogen: 1,2-DIMETHYLHYDRAZINE [540-73-8], Dose [Inhibitor]: 20 UG/ML IN DRINKING WATER 14 HR/D AT NIGHT TIME FOR 6 MONTHS (STUDY DURATION: 6 MONTHS), Route [Inhibitor]: ORAL, Species: RAT, Strain/Sex: LIO/FEMALE, Target Tissue: Type of Lesion: RECTUM: TUMOR, Dose [Carcinogen]: 21 MG/KG BW 1X/WK FOR 15 WK (STUDY DURATION: 6 MONTHS), Promoter: NONE): 11/25 (44.0%), 11/23 (47.8%), -9%, not significant | tumour outcome (control, treated, inhibition, significance) (Carcinogen: 7, 12-DIMETHYLBENZ(A)ANTHRACENE [57-97-6], Dose [Inhibitor]: 20 UG/ML IN DRINKING WATER, 17 HR/D BEGINNING 5 D BEFORE FIRST CARCINOGEN DOSE FOR 13 WK (STUDY DURATION: 13 WK), Route [Inhibitor]: ORAL, Species: RAT, Strain/Sex: SPRAGUE-DAWLEY/FEMALE, Target Tissue: Type of Lesion: MAMMARY GLAND: TUMOR, Dose [Carcinogen]: 10 MG THREE TIMES BETWEEN POSTNATAL DAYS 45-59): 23/24 (95.8%), 21/28 (75%), 21.5%, p<0.05 | tumour outcome (control, treated, inhibition, significance) (Carcinogen: 7,12-DIMETHYLBENZ[A]ANTHRACENE [57-97-6], Dose [Inhibitor]: 10 MG/KG BW DAILY BETWEEN 45 AND 59 D OF AGE, Route [Inhibitor]: INTRAGASTRIC (GAVAGE) IN HYDROXYETHYLCELLULOSE SOLUTION, Species: RAT, Strain/Sex: SPRAGUE-DAWLEY/FEMALE, Target Tissue: Type of Lesion: MAMMARY: ADENOCARCINOMA, Dose [Carcinogen]: 75 MG/KG BW IN SESAME OIL AT 60 D OF AGE (STUDY DURATION: 1 YR)): 75%, 43%, 43%, p=0.04 (at 6 mo) | tumour outcome (control, treated, inhibition, significance) (Carcinogen: 7,12-DIMETHYLBENZ[A]ANTHRACENE [57-97-6], Dose [Inhibitor]: 10 MG/KG BW DAILY FOR 6 MO AFTER CARCINOGEN ADMINISTRATION, Route [Inhibitor]: INTRAGASTRIC (GAVAGE), Species: RAT, Strain/Sex: SPRAGUE-DAWLEY/FEMALE, Target Tissue: Type of Lesion: MAMMARY: ADENOCARCINOMA, Dose [Carcinogen]: 75 MG/KG BW AT 55 D OF AGE (STUDY DURATION: 1 YR)): 75%, 35%, 53%, p=0.01 (at 6 mo) | tumour outcome (control, treated, inhibition, significance) (Carcinogen: 7,12-DIMETHYLBENZ[A]ANTHRACENE [57-97-6], Dose [Inhibitor]: 20 UG/ML IN DRINKING WATER 15 HR/D FOR 4 MONTHS BEGINNING AT THE TIME OF THE FIRST CARCINOGEN DOSE (STUDY DURATION: 6 MO, Route [Inhibitor]: ORAL, Species: MOUSE, Strain/Sex: CBA/FEMALE, Target Tissue: Type of Lesion: VAGINA AND CERVIX: TUMOR, Dose [Carcinogen]: 0.1% IN TRIETHYLENEGLYCOL IN A POLYURETHANE SPONGE 3 HR/D 2 D/WK FOR 2 MONTHS (STUDY DURATION: 6 MO), Promoter: NONE): 7/20 (35%), 3/20 (15%), 57%, not significant | tumour outcome (control, treated, inhibition, significance) (Carcinogen: 7,12-DIMETHYLBENZ[A]ANTHRACENE, 57-97-6, Dose [Inhibitor]: 0, 20 UG/ML IN DRINKING WATER 17 HR/D 4 D/WK FOR 26 WK BEGINNING 45 D OF AGE (STUDY DURATION: 26 WK), Route [Inhibitor]: ORAL, Species: RAT, Strain/Sex: SD/FEMALE, Target Tissue: Type of Lesion: MAMMARY GLAND: TUMOR, Dose [Carcinogen]: 10 UG/ANIMAL IN CORN OIL INTRAGASTRICALLY ON 45, 50, 55 D OF AGE): 100%, 42%, 58%, p<0.001 | tumour outcome (control, treated, inhibition, significance) (Carcinogen: 7,12-DIMETHYLBENZ[A]ANTHRACENE, 57-97-6, Dose [Inhibitor]: 0, 20 UG/ML IN DRINKING WATER FOR 17 HR/D FOR THE DURATION OF STUDY (STUDY DURATION: 180 D), Route [Inhibitor]: ORAL, Species: RAT, Strain/Sex: SPRAGUE-DAWLEY/FEMALE, Target Tissue: Type of Lesion: MAMMARY GLAND: TUMOR, Dose [Carcinogen]: 20 MG/ANIMAL GAVAGE ONCE 10 D POST INHIBITOR TREATMENT (STUDY DURATION: 178 D), Promoter: NONE): 16/24 (66.6%), 15/25 (60.0%), 10%, not significant | tumour outcome (control, treated, inhibition, significance) (Carcinogen: GAMMA RAYS: 7,12-DIMETHYLBENZ[A]ANTHRACENE [57-97-6], Dose [Inhibitor]: 0, 100 UG/ML IN DRINKING WATER FOR 28 WK (STUDY DURATION: 28 WK), Route [Inhibitor]: ORAL, Species: RAT, Strain/Sex: WISTAR: HAN/FEMALE, Target Tissue: Type of Lesion: MAMMARY GLAND: TUMOR, Dose [Carcinogen]: 96 MGY FORM CO-60 SOURCE FOR 2 WK (TOTAL ACCUMULATED DOSE 1.44 GY), THEN 3 DOSES OF 10 MG DMBA BY GAVAGE (STUDY DURATION, Promoter: NONE): 48.3%, 50.0%, -3.5%, not significant
